Reference: publication PMC5983288, “The Maxi-K (BK) Channel Antagonist Penitrem A as a Novel Breast Cancer-Targeted Therapeutic” (Marine Drugs, 2018)

Assays:
[1] = system: MCF-12A cells (non-tumorigenic human mammary epithelial cells); assay: MTT cell viability assay, MCF-12A; assay type: cell-based; conditions: 48 h
Protocol: (§1) Penitrems were dissolved in dimethyl sulfoxide (DMSO) to provide a final 25 mM stock solution. Proper media were used to prepare penitrems at their final tested doses for each assay. […] The effects of penitrems 1–3 on the proliferation and growth of multiple BC cell lines were evaluated using MTT assay. MDA-MB-231, BT-474, and SK-BR-3 BC cells (ATCC, Manassas, VA, USA) were initially seeded at 1 × 10^4 cells/well (6 replicates/group) in 96-well plates in RPMI-1640 media containing 10% FBS, and allowed to attach overnight. The next day, cells were washed with PBS, divided into different treatment groups, and then given various concentrations of tested penitrems in 0.5% FBS containing media. Viable cell number was calculated after 48 h using the MTT assay.
(§2) To evaluate the effect of penitrems on growth of the human neuronal Schwann CRL 2765 (ATCC, Manassas, VA, USA), cells were plated at a density of 1 × 10^4 cell per well (6-wells/group) in 96-well culture plates using the ATCC-recommended media (Dulbecco’s Modified Eagle’s Medium, DMEM) and allowed to adhere overnight for growth studies, after which each treatment was added, and cells were maintained for 48 h. Similarly, the non-tumorigenic mammary epithelial MCF-12A cells were plated in DMEM/F12 supplemented with 5% horse serum, […], 20 ng/mL EGF, 100 U/mL penicillin, 0.1 mg/mL streptomycin, and […]. Next day, cells were divided into different groups and fed serum-free DMEM media supplemented with experimental treatments or vehicle-treated control media. Viable cell number was determined using the MTT colorimetric assay. The absorbance was measured at λ570 nm on a BioTek Synergy2 microplate reader (BioTek, Winooski, VT, USA). The number of cells per well was calculated against a standard curve prepared at the start of the experiment. The IC50 value for each tested sample was calculated by non-linear regression of log concentration versus the % survival, implemented in GraphPad® PRISM version 5.0 (Graph Pad Software, Inc., La Jolla, CA, USA).

[2] = system: human neuronal Schwann cells CRL-2765; assay: MTT cell viability assay, Schwann CRL-2765; assay type: cell-based; conditions: CRL-2765, MTT, 48 h
Protocol: as §1, §2

MDA-MB-231 cells = assay: MTT cell viability assay, MDA-MB-231; assay type: cell-based, human; conditions: MDA-MB-231, MTT, 48 h
Protocol: as §1, §2

BT-474 cells = assay: cells; assay type: cell-based, human
Protocol: as §1, with “MDA-MB-231, BT-474, and SK-BR-3 BC cells (ATCC, Manassas, VA, USA) were initially seeded at 1 × 10^4 cells/well (6 replicates/group) in 96-well plates in RPMI-1640 media containing 10% FBS, and allowed to attach overnight.” left out
as §2, with “Similarly,” for “To evaluate the effect of penitrems on growth of the human neuronal Schwann CRL 2765 (ATCC, Manassas, VA, USA), cells were plated at a density of 1 × 10^4 cell per well (6-wells/group) in 96-well culture plates using the ATCC-recommended media (Dulbecco’s Modified Eagle’s Medium, DMEM) and allowed to adhere overnight for growth studies, after which each treatment was added, and cells were maintained for 48 h. Similarly,”

SK-BR-3 cells = assay: MTT cell viability assay, SK-BR-3; assay type: cell-based, human; conditions: SK-BR-3, MTT, 48 h
Protocol: as §1, §2

[3] = system: BK channel subunits α-1 (KCNMA1); assay: Western blot, BK channel expression in BC cells; assay type: cell-based, human; conditions: MDA-MB-231, BT-474, SK-BR-3; 10 µM treatments; vs control
Protocol: (§3) MDA-MB-231, BT-474, SK-BR-3, Schwann CRL-2765, and MCF-12A cells, were plated at a density of 1 × 10^6 cells/100 mm culture plates. MDA-MB-231, BT-474, and SK-BR-3 were plated in RPMI-1640 media supplemented with 10% FBS, Schwann cells CRL-2765 were plated in DMEM media supplemented with 10% FBS [11], and MCF-12A cells were plated in DMEM/F12 supplemented with ingredients described earlier. Cells were allowed to adhere overnight, then washed twice with PBS, and starved in control or treatment in serum-free medium containing 0.5% FBS for 48 h to synchronize the cells in G1 phase. Afterwards, cells were treated with tested penitrems in serum-free defined media for 24 h. At the end of treatment periods, cells were lysed in RIPA buffer (Qiagen Sciences Inc., Valencia, CA, USA). Protein concentration was determined by the BCA assay (Bio-Rad, Hercules, CA, USA). Equivalent amounts of protein (50 µg) were electrophoresed on SDS-polyacrylamide gels. The gels were then electroblotted onto PVDF membranes. These PVDF membranes were then blocked with 2% BSA in 10 mM Tris-HCl containing 50 mM NaCl and 0.1% Tween 20, pH 7.4 (TBST), and then incubated with specific primary antibodies overnight at 4 °C. […] Western blot quantification analysis was done using Image Lab ^TM Software (Bio-Rad, Hercules, CA, USA) for total protein normalization.

TNF-α = assay: Western blot, TNF-α levels in BC cells; assay type: cell-based, human; conditions: MDA-MB-231, BT-474, SK-BR-3; 10 µM treatments; vs control
Protocol: as §3

[4] = system: BK channel subunits α-1 (KCNMA1); assay: Immunocytochemical fluorescence staining of KCNMA1; assay type: cell-based, human; conditions: MDA-MB-231 (9.8 µM) and BT-474 (10.3 µM), 24 h, vs vehicle-treated controls
Protocol: Immunocytochemical fluorescent studies were conducted by growing MDA-MB-231 and BT-474 cells mammary cancer cells on 8-chamber culture slides (Becton Dickinson and Company, Franklin Lakes, NJ, USA) at a density of 2 × 10^4 cells/chamber (2 replicates/group), and allowed to attach overnight in complete serum media supplemented with 10% FBS. […] At the end of experiment, cells were washed with pre-cooled PBS, and fixed with acetone, pre-cooled to −20 °C, for 2 min. Fixed cells were then washed with PBS, and blocked with 2% BSA in 10 mM Tris-HCl containing 50 mM NaCl and 0.1% Tween 20, pH 7.4 (TBST) for 1 h at rt. Cells were then incubated with specific primary antibody for BK channel KCNMA1 (1:300) overnight at 4 °C in 2% BSA-TBST. At the end of incubation time, cells were washed five times with pre-cooled PBS, followed by incubation with Alexa-Fluor 594-conjugated secondary antibody (1:5000) in 2% BSA-TBST for 1 h at rt. After final washing for five times with PBS, cells were embedded in Vectashield Mounting Medium with DAPI (Vector Laboratories Inc., Burlingame, CA, USA). Fluorescent images were obtained by using a confocal laser scanning microscope (Carl Zeiss Microimaging Inc., Thornwood, NY, USA). The red color indicates the positive fluorescence staining for BK channel KCNMA1, and the blue color represents MDA-MB-231 cell nuclei counter-stained with DAPI [30]. […]

BK channels = system: BK channels; parameters: method as in PMID 27834847, PMID 14593856; conditions: cited from earlier work
[5] = Homo sapiens, BT-474, MTT, 48 h

Row | Compound | IC50 [1] | IC50 [2] | IC50 (MDA-MB-231 cells) | IC50 (BT-474 cells; BT-474, MTT, 48 h) | IC50 (SK-BR-3 cells) | total levels of BK channel subunits α-1 (KCNMA1) [3] | total levels of TNF-α (TNF-α) | total levels of KCNMA1 (immunofluorescence) [4] | BK channels antagonism (BK channels) | IC50 (BT-474 cells; Homo sapiens, BT-474, single agent) | IC50 ([1]; Homo sapiens) | IC50 ([2]; Homo sapiens) | IC50 (MDA-MB-231 cells; Homo sapiens) | IC50 (BT-474 cells; [5]) | IC50 (SK-BR-3 cells; Homo sapiens)
1 | Penitrem A [Compound 1] | 33.7 µM | 22.6 µM | 9.8 µM | 10.3 µM | 15.1 µM | greatest reduction | increased total levels of TNF-α | remarkable reduction | potent BK channels antagonist at very low molar concentration | – | – | – | – | – | –
2 | CS(=O)(=O)CCNCc1ccc(-c2ccc3ncnc(Nc4ccc(OCc5cccc(F)c5)c(Cl)c4)c3c2)o1 [LP, lapatinib, reference compound] | – | – | – | – | – | – | – | – | – | 0.123 µM | – | – | – | – | –
3 | C=C(C)C1OC2CCC3(C)C4(C)c5[nH]c6cc(Cl)c7c8c6c5C(OC(C)(C)C5CC(C(=C)C7)C85O)C4CCC3(O)C23OC3C1OC (stereo not shown) [Compound 3, 25-O-methylpenitrem A] | – | – | – | – | – | – | – | – | – | – | 78.8 µM | 48.2 µM | 37.8 µM | 22.4 µM | 27.1 µM
4 | C=C(C)[C@H]1O[C@H]2CC[C@@]3(C)[C@@](O)(CC[C@H]4[C@@H]5OC(C)(C)[C@H]6C[C@@H]7C(=C)Cc8ccc9[nH]c(c5c9c8[C@@]76O)[C@@]43C)[C@]23O[C@@H]3[C@H]1O [Compound 2, Penitrem E] | – | – | – | – | – | did not cause changes | increased total levels of TNF-α in both BT-474 and SK-BR-3 cells | – | – | – | 44 µM | 67.8 µM | 20.3 µM | 31.8 µM | 36.7 µM
